Results from the supplement of paper PMC10307832.

Assays:
Experiment in all cases: relative viability (nuclei count vs DMSO), 5 days (fraction); higher = more cells survive
[1] = compound: OCc1c[nH]c2ccccc12 [Indole-3-carbinol] + Cc1nc(Nc2ncc(C(=O)Nc3c(C)cccc3Cl)s2)cc(N2CCN(CCO)CC2)n1 [Dasatinib] (partner 0.075 µM)
In short: (§1)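 Relative viability equals treated-well nuclei counts divided by vehicle-well nuclei counts. Counts came from 4× images of lung cancer cell lines grown in 1536-well plates for 5 days after pin-tool dosing on the day after seeding. Dosing used one drug alone or a fixed anchor-drug dose plus five library-drug doses (not always all listed) in √10 steps, and values are medians of duplicate plates.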

[2] = compound: OCc1c[nH]c2ccccc12 [Indole-3-carbinol] + Nc1nc2[nH]cc(CCc3ccc(C(=O)N[C@@H](CCC(=O)O)C(=O)O)cc3)c2c(=O)[nH]1 [Pemetrexed] (partner 0.2 µM)
In short: as §1

[3] = compound: OCc1c[nH]c2ccccc12 [Indole-3-carbinol] + C[C@@H](Oc1cc(-c2cnn(C3CCNCC3)c2)cnc1N)c1c(Cl)ccc(F)c1Cl [Crizotinib] (partner 1 µM)
In short: as §1

[4] = compound: OCc1c[nH]c2ccccc12 [Indole-3-carbinol] + CCNC(=O)c1noc(-c2cc(C(C)C)c(O)cc2O)c1-c1ccc(CN2CCOCC2)cc1 [Luminespib] (partner 0.01 µM)
In short: as §1

[5] = compound: OCc1c[nH]c2ccccc12 [Indole-3-carbinol] + COc1cc2c(Oc3ccc(NC(=O)C4(C(=O)Nc5ccc(F)cc5)CC4)cc3F)ccnc2cc1OCCCN1CCOCC1 [Foretinib] (partner 0.25 µM)
In short: as §1

[6] = compound: OCc1c[nH]c2ccccc12 [Indole-3-carbinol] + N=C(N)NC(=N)NCCc1ccccc1 [Phenformin] (partner 250 µM)
In short: as §1

[7] = compound: OCc1c[nH]c2ccccc12 [Indole-3-carbinol] + CS(=O)(=O)CCNCc1ccc(-c2ccc3ncnc(Nc4ccc(OCc5cccc(F)c5)c(Cl)c4)c3c2)o1 [Lapatinib] (partner 2 µM)
In short: as §1

[8] = compound: OCc1c[nH]c2ccccc12 [Indole-3-carbinol] + CS(=O)(=O)N1CCN(Cc2cc3nc(-c4cccc5[nH]ncc45)nc(N4CCOCC4)c3s2)CC1 [Pictilisib] (partner 1 µM)
In short: as §1

[9] = compound: OCc1c[nH]c2ccccc12 [Indole-3-carbinol] + C[C@]1(O)C[C@@H](c2nc(-c3ccc4ccc(-c5ccccc5)nc4c3)c3c(N)nccn32)C1 [Linsitinib] (partner 1 µM)
In short: as §1

[10] = compound: OCc1c[nH]c2ccccc12 [Indole-3-carbinol] + COc1cccc2cc(-c3nc([C@H]4CC[C@H](C(=O)O)CC4)n4ncnc(N)c34)[nH]c12 [OSI-027] (partner 0.5 µM)
In short: as §1

[11] = compound: OCc1c[nH]c2ccccc12 [Indole-3-carbinol] + Cc1nc(NC(=O)N2CCC[C@H]2C(N)=O)sc1-c1ccnc(C(C)(C)C(F)(F)F)c1 [Alpelisib] (partner 2 µM)
In short: as §1

[12] = compound: OCc1c[nH]c2ccccc12 [Indole-3-carbinol] + CC(C)C[C@H](NC(=O)[C@H](Cc1ccccc1)NC(=O)c1cnccn1)B(O)O [Bortezomib] (partner 0.002 µM)
In short: as §1

Indole-3-carbinol = compound: OCc1c[nH]c2ccccc12 [Indole-3-carbinol]
In short: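 Viability was defined as treated-well nuclei divided by vehicle-well nuclei, with the median taken over replicate plates. Cells from lung cancer lines sat overnight at 37 °C in 1536-well plates, received five √10-spaced library-drug doses by pinning on vehicle-anchored plates, and grew 5 days without medium change before one-step fixation, permeabilisation and Hoechst staining, 4× imaging and MetaXpress nuclear counts. Only plates with control CV under 25% and at least one doubling were kept.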

[13] = compound: OCc1c[nH]c2ccccc12 [Indole-3-carbinol] + Cc1cc(Nc2cc(N3CCN(C)CC3)nc(Sc3ccc(NC(=O)C4CC4)cc3)n2)n[nH]1 [Tozasertib] (partner 0.1 µM)
In short: as §1

With NCI-H1563 the relative viability ([1]; first compound 0.253 µM) was 0.471, the relative viability ([1]; first compound 0.8 µM) was 0.428 and the relative viability ([1]; first compound 2.53 µM) was 0.429. The relative viability ([1]; first compound 8 µM) was 0.479, the relative viability ([2]; first compound 0.253 µM) was 0.767 and the relative viability ([2]; first compound 0.8 µM) was 0.645. For the same cell line, the relative viability ([2]; first compound 2.53 µM) was 0.809, the relative viability ([2]; first compound 8 µM) was 0.802 and the relative viability ([3]; first compound 0.253 µM) was 0.769. For the same cell line, the relative viability ([3]; first compound 0.8 µM) was 0.883, the relative viability ([3]; first compound 2.53 µM) was 0.866 and the relative viability ([3]; first compound 8 µM) was 0.879. For the same cell line, the relative viability ([4]; first compound 0.253 µM) was 0.454, the relative viability ([4]; first compound 0.8 µM) was 0.494 and the relative viability ([4]; first compound 2.53 µM) was 0.512. The relative viability ([4]; first compound 8 µM) was 0.495, the relative viability ([5]; first compound 0.253 µM) was 0.865 and the relative viability ([5]; first compound 0.8 µM) was 0.799. The relative viability ([5]; first compound 2.53 µM) was 0.914, the relative viability ([5]; first compound 8 µM) was 0.859 and the relative viability ([6]; first compound 0.253 µM) was 0.657. For the same cell line, the relative viability ([6]; first compound 0.8 µM) was 0.652, the relative viability ([6]; first compound 2.53 µM) was 0.636 and the relative viability ([6]; first compound 8 µM) was 0.644. For the same cell line, the relative viability ([7]; first compound 0.253 µM) was 1.03, the relative viability ([7]; first compound 0.8 µM) was 0.818 and the relative viability ([7]; first compound 2.53 µM) was 0.975. The relative viability ([7]; first compound 8 µM) was 0.967, the relative viability ([8]; first compound 0.253 µM) was 0.667 and the relative viability ([8]; first compound 0.8 µM) was 0.611. The relative viability ([8]; first compound 2.53 µM) was 0.664, the relative viability ([8]; first compound 8 µM) was 0.662 and the relative viability ([9]; first compound 0.253 µM) was 1.24. It also gave a relative viability ([9]; first compound 0.8 µM) of 1.27, a relative viability ([9]; first compound 2.53 µM) of 1.23 and a relative viability ([9]; first compound 8 µM) of 1.08. The relative viability ([10]; first compound 0.253 µM) was 0.733, the relative viability ([10]; first compound 0.8 µM) was 0.748 and the relative viability ([10]; first compound 2.53 µM) was 0.747. The relative viability ([10]; first compound 8 µM) was 0.791, the relative viability ([11]; first compound 0.253 µM) was 0.905 and the relative viability ([11]; first compound 0.8 µM) was 0.997. For the same cell line, the relative viability ([11]; first compound 2.53 µM) was 0.921, the relative viability ([11]; first compound 8 µM) was 0.885 and the relative viability ([12]; first compound 0.253 µM) was 0.951. It also gave a relative viability ([12]; first compound 0.8 µM) of 0.7, a relative viability ([12]; first compound 2.53 µM) of 0.996 and a relative viability ([12]; first compound 8 µM) of 0.774. For the same cell line, the relative viability (Indole-3-carbinol; 0.253 µM) was 1.02, the relative viability (Indole-3-carbinol; 0.8 µM) was 0.883 and the relative viability (Indole-3-carbinol; 2.53 µM) was 1.09. For the same cell line, the relative viability (Indole-3-carbinol; 8 µM) was 0.908.

For NCI-H1623, the relative viability ([1]; first compound 0.253 µM) was 0.531, the relative viability ([1]; first compound 0.8 µM) was 0.566 and the relative viability ([1]; first compound 2.53 µM) was 0.539. It also gave a relative viability ([1]; first compound 8 µM) of 0.577, a relative viability ([4]; first compound 0.253 µM) of 0.425 and a relative viability ([4]; first compound 0.8 µM) of 0.543. For the same cell line, the relative viability ([4]; first compound 2.53 µM) was 0.532, the relative viability ([4]; first compound 8 µM) was 0.529 and the relative viability ([5]; first compound 0.253 µM) was 0.881. For the same cell line, the relative viability ([5]; first compound 0.8 µM) was 0.989, the relative viability ([5]; first compound 2.53 µM) was 0.803 and the relative viability ([5]; first compound 8 µM) was 0.858. For the same cell line, the relative viability ([6]; first compound 0.253 µM) was 0.725, the relative viability ([6]; first compound 0.8 µM) was 0.611 and the relative viability ([6]; first compound 2.53 µM) was 0.571. For the same cell line, the relative viability ([6]; first compound 8 µM) was 0.551, the relative viability ([10]; first compound 0.253 µM) was 0.412 and the relative viability ([10]; first compound 0.8 µM) was 0.443. It also gave a relative viability ([10]; first compound 2.53 µM) of 0.424, a relative viability ([10]; first compound 8 µM) of 0.436 and a relative viability ([13]; first compound 0.253 µM) of 0.467. For the same cell line, the relative viability ([13]; first compound 0.8 µM) was 0.486, the relative viability ([13]; first compound 2.53 µM) was 0.39 and the relative viability ([13]; first compound 8 µM) was 0.453. For the same cell line, the relative viability (Indole-3-carbinol; 0.253 µM) was 0.924, the relative viability (Indole-3-carbinol; 0.8 µM) was 1.02 and the relative viability (Indole-3-carbinol; 2.53 µM) was 0.984. It also gave a relative viability (Indole-3-carbinol; 8 µM) of 0.978.
